Data taken from ChEMBL document CHEMBL1201862, “PubChem BioAssay data set” (2004).
Active and inactive are the calls of the source.

Tests used:
[1] = target: T1, Fatty acid synthase (Homo sapiens, UniProt P49327); test: inhibition of human FAS-TE enzyme activity – biochemical, kinetic fluorescence intensity, dose response (AID 624326); format: functional;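 note: rate of fluorescence rise from hydrolysis of a fluorogenic O-methyl fluorescein ester substrate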
[2] = target: Cytochrome P450 2D6 (Homo sapiens, UniProt P10635);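 note: CYP2D6 member of a cytochrome P450 panel assay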
Sequence of Cytochrome P450 2D6 (P10635 whole entry): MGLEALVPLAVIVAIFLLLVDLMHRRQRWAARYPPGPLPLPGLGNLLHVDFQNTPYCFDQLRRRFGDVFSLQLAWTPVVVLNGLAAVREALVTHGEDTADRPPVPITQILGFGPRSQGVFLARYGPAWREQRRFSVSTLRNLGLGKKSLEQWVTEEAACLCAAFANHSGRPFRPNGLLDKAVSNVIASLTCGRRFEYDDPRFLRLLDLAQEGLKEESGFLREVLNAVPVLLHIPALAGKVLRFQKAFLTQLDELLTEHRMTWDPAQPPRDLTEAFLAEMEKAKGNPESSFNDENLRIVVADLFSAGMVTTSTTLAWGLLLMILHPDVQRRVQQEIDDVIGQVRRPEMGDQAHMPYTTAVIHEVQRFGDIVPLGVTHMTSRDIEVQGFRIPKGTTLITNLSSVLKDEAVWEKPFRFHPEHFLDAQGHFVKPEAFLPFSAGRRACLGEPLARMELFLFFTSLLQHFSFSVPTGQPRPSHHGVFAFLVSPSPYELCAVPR

[3] = target: T1, Fatty acid synthase; test: inhibition of human FAS-TE enzyme activity – biochemical, endpoint fluorescence intensity, uHTS hits, dose response (AID 624327); format: functional;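 note: fluorescence from hydrolysis of an O-methyl fluorescein acyl ester substrate by the enzyme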
[4] = target: Lysine-specific demethylase 4C (Homo sapiens, UniProt Q9H3R0); test: inhibition of JMJD2C H3K9me3 demethylation – biochemical, DELFIA europium, cherry-picked samples, dose response (AID 488835); format: functional
[5] = NIH-3T3 fibroblast cytotoxicity, dose response, cytotoxicity control, cell-based, fluorescence, Alamar Blue, secondary assay (AID 2327); format: functional;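 note: NIH-3T3 mouse fibroblasts cultured with fluconazole at 8 µg/mL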
[6] = fluconazole-exposed Candida albicans growth modulators – fluorescence, retest, confirmation (AID 2467); format: functional, cell-based
[7] = target: Nucleotide-binding oligomerization domain-containing protein 2 (Homo sapiens, UniProt Q9HC29); test: inhibition of MDP-driven NOD2 NF-kB reporter – cell-based, set 3, SAR follow-up (AID 2799); format: functional
Sequence of Nucleotide-binding oligomerization domain-containing protein 2 (Q9HC29 whole entry, the tested form may be a part): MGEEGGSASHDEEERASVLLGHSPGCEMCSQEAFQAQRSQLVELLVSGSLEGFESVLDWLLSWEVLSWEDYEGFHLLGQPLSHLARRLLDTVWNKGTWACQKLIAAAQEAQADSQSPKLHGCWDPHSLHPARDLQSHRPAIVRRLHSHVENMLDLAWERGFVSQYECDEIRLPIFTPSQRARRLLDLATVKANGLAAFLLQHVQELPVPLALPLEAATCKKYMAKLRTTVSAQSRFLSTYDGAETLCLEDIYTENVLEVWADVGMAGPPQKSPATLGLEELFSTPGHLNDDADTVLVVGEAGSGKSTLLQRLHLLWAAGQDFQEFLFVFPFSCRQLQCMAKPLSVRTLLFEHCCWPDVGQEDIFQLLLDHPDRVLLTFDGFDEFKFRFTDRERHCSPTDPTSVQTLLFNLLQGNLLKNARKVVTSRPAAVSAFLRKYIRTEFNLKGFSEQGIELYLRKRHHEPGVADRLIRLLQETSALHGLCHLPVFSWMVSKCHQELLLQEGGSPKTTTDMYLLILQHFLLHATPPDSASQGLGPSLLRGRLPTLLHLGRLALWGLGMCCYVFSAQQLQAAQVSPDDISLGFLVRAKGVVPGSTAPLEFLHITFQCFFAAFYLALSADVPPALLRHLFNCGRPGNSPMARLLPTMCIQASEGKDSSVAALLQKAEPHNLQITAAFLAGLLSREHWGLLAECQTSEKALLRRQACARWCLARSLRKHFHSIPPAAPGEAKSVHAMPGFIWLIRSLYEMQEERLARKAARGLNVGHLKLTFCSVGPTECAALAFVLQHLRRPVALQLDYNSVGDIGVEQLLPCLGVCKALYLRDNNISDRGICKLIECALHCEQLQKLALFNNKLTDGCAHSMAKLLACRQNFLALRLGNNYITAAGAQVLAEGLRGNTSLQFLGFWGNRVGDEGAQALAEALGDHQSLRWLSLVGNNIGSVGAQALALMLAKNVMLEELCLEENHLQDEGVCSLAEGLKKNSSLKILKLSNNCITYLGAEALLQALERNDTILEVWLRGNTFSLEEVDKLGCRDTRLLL

[8] = target: T2, Nucleotide-binding oligomerization domain-containing protein 1 (Homo sapiens, UniProt Q9Y239); test: SAR analysis of compounds that inhibit NOD1 - Set 3. [Related pubchem assays (depositor defined):AID1566, AID1575, AID1578, AID1849, AID1852, AID2333, AID2335, AID2466]; format: functional
T2 sequence (Q9Y239 whole entry): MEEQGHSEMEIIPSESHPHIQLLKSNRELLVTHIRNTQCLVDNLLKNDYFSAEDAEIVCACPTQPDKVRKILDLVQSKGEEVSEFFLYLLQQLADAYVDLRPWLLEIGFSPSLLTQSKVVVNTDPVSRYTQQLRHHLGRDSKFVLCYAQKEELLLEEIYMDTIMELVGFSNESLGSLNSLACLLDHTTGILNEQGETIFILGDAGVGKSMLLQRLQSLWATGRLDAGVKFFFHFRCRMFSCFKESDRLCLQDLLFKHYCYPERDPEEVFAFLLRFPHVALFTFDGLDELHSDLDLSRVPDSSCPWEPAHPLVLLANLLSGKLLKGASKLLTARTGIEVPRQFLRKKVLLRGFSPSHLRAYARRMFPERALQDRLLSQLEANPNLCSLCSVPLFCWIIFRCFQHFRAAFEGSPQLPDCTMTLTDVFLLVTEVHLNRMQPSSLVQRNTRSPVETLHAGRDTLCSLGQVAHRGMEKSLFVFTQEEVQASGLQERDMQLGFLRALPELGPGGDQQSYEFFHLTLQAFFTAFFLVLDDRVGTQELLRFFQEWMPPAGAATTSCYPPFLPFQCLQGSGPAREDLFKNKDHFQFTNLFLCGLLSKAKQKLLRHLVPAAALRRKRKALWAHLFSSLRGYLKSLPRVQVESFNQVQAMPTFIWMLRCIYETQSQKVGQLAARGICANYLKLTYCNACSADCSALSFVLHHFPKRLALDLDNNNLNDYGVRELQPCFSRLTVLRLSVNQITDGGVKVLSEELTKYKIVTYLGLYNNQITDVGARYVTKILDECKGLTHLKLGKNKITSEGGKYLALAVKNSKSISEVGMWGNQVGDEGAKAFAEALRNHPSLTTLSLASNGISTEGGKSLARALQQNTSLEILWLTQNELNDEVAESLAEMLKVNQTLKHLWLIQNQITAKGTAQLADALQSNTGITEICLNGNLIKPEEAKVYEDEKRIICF

[9] = target: Tumor necrosis factor (Homo sapiens, UniProt P01375); test: analog potency on TNFa NF-kB signaling – cell-based, set 3, SAR follow-up (AID 2801); format: functional
Sequence of Tumor necrosis factor (P01375 whole entry): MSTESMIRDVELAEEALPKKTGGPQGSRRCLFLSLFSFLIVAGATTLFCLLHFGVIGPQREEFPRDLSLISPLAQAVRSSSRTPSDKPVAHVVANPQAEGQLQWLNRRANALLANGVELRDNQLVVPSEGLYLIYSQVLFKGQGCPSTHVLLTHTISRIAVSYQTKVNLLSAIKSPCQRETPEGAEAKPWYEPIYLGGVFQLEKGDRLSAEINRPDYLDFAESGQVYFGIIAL

[10] = tested on: HEK293; test: SAR analysis of compounds that are cytotoxic to HEK293 - Set 3. [Related pubchem assays (depositor defined):AID1575, AID1578, AID1848, AID1849, AID2001, AID2333, AID2334, AID2335, AID2337, AID2469]; format: functional, cell-based; conditions: Homo sapiens
[11] = target: G-protein coupled receptor 55 (Homo sapiens, UniProt Q9Y2T6); test: blockers of GPR55 signalling, imaged – imaging, image-based, counter-screen for GPR35 antagonist project, SAR follow-up (AID 2397); format: functional
Sequence of G-protein coupled receptor 55 (Q9Y2T6 whole entry): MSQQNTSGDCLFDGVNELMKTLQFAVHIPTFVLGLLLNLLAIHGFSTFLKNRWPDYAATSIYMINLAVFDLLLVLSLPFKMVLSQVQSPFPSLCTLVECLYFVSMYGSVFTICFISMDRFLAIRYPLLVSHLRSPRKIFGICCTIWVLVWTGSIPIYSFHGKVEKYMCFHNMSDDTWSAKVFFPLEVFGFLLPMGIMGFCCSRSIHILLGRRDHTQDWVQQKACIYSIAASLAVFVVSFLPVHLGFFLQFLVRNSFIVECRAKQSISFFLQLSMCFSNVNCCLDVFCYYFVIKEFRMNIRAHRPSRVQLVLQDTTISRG

T1 sequence (P49327 whole entry): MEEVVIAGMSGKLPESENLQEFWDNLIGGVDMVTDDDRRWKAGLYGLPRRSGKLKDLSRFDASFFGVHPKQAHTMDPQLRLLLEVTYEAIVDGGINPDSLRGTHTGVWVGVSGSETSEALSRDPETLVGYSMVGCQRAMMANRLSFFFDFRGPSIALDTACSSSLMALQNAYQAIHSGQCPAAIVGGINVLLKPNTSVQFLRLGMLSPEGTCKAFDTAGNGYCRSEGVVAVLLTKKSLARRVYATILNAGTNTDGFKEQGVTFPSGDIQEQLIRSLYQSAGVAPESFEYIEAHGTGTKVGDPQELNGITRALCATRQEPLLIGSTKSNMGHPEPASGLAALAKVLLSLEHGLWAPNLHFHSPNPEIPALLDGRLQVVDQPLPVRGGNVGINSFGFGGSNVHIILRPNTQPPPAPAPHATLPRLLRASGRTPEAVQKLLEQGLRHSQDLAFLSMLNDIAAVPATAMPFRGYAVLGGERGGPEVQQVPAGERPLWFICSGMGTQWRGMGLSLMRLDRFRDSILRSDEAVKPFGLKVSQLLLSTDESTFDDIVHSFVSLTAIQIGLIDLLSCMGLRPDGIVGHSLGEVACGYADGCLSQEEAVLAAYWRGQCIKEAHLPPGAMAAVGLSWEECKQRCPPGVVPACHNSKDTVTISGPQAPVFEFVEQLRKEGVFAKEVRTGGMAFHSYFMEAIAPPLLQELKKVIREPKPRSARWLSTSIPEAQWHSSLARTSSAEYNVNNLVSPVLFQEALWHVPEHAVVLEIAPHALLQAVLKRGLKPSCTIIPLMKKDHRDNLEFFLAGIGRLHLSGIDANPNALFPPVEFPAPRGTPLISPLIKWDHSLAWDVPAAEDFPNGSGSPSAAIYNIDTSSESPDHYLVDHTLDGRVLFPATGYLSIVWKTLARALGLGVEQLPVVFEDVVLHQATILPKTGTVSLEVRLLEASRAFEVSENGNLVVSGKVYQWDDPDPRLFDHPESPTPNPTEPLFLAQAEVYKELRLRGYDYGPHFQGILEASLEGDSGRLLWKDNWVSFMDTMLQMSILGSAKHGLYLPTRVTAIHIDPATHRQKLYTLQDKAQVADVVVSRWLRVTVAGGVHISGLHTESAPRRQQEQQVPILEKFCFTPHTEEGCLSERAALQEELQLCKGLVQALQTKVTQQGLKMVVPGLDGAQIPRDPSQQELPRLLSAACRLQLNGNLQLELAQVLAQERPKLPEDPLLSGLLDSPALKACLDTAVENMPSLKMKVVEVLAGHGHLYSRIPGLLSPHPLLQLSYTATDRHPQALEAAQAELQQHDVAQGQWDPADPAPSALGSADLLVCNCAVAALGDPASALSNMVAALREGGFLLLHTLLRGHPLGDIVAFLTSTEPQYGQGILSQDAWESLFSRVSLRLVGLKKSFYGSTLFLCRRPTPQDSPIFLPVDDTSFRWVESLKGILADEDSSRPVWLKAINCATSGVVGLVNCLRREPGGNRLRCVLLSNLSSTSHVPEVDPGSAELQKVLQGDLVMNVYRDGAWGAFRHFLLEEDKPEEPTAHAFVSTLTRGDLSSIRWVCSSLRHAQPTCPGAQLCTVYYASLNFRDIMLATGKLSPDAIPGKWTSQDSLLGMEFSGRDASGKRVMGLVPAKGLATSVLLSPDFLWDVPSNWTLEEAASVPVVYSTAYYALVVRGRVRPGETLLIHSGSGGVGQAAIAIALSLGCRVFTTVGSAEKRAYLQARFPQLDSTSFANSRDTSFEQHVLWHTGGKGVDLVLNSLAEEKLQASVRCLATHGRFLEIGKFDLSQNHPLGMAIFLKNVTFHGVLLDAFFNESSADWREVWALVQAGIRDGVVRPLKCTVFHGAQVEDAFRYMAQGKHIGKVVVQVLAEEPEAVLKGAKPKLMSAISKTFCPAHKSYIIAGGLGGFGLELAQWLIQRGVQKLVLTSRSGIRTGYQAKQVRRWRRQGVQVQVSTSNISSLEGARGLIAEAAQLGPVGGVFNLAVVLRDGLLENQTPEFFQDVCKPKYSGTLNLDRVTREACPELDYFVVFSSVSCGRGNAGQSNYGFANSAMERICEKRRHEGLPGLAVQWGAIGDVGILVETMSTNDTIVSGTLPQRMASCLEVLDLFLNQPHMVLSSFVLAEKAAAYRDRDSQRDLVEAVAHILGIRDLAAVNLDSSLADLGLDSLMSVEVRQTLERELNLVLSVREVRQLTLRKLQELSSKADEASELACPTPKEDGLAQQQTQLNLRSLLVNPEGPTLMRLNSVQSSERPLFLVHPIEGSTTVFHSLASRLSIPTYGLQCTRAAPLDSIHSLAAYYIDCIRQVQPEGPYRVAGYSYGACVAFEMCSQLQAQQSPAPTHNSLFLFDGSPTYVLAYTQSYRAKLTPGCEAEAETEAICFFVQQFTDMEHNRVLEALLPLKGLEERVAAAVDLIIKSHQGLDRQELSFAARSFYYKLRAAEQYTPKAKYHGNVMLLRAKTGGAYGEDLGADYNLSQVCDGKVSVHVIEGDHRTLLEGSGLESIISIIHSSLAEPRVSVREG

Q: What does the source list for `CC(C)(C)c1ccc(OC(=O)Nc2ccc(O)c(C(=O)O)c2)cc1`?
A: IC50 [1]: 11.7 µM (active); AC50 [2]: inconclusive; IC50 [3]: 9.66 µM (active)

Q: Which AC50 [4] does the source give for `FC(F)(F)c1ccccc1N=C(S)NN=C1CCCCCC1` here?
A: Its AC50 is 6.8 µM (active).

Q: And the EC50 [5]?
A: Its EC50 is 54 µM (active).

Q: And the EC50 [6]?
A: The EC50 was > 38 µM (not active).

Q: For `CCCCn1c(SCCCc2ccccc2)nc2c1c(=O)[nH]c(=O)n2C`, which IC50 [7] is on record?
A: Its IC50 is 11.9 µM (active).

Q: And the IC50 [8]?
A: Its IC50 is > 20 µM (inactive).

Q: And the IC50 [9]?
A: Its IC50 is 17.7 µM (active).

Q: What about the IC50 [10] of the same molecule?
A: The IC50 was > 20 µM (inactive).

Q: With `Cc1c(C(=O)Nc2ccc3c(c2)OCCO3)sc2ncnc(N3CCCCC3C)c12` (stereo unspecified) as the molecule, how does the IC50 [11] read?
A: The IC50 was 4.95 µM (active).
